Columns and labels:
Format in all cases: cell-based, mouse
mESC = assay: Nuclear γH2AX / 53BP1 foci (DSB); settings: mESC 24 h, equitoxic concentrations
Procedure: (§1) DNA double-strand breaks were monitored by immunocytochemical detection of nuclear γH2AX and 53BP1 foci. Cells were fixed with 3.7% formaldehyde/PBS (15 min, RT) and permeabilized (0.3% TritonX/PBS; 15 min, RT). […] Cell suspension was mixed with 0.5% low melting point agarose and applied onto glass slides coated with 1.5% agarose. After lysis in alkaline buffer (pH 10, 1 h, 4 °C, protected from light) and DNA denaturation in precooled electrophoresis buffer (pH > 13, 25 min, 4 °C, protected from light) electrophoresis was performed (300 mA, 25 V, 4 °C, 25 min).

EC d4 = assay: Nuclear γH2AX / 53BP1 foci (DSB); settings: EC d4 48 h, equitoxic concentrations
Procedure: as §1

[1] = system: EC d4 (endothelial progenitor cells); assay: RT-qPCR mRNA expression; settings: for Flk1 mRNA / Nanog mRNA / Oct4 mRNA / Pecam1 mRNA / Tie1 mRNA / VE-cad mRNA: analysed day 6, Fig 1C; for Ccl2 mRNA / Icam-1 mRNA / Vcam-1 mRNA / iNos mRNA / eNos mRNA: Fig 8D; for Gpx4 mRNA / Slc7a11 mRNA: Fig 6F
Procedure: (§2) Total RNA was purified using the RNeasy Mini Kit (Qiagen, Hilden, Germany). Reverse transcriptase (RT) reaction was performed with the HighCapacity cDNA Reverse Transcription Kit (Applied Biosystems, Darmstadt, Germany) using 900–2000 ng of RNA. Quantitative RT-qPCR analysis was performed using following conditions: (1) 95 °C–10 min; (2) 45 amplification cycles with 95 °C–15 s, 55 °C–15 s, and 72 °C–17 s; (3) 95 °C–1 min, 55 °C–1 min, 65 °C–5 s. If not stated otherwise, analyses were performed in technical triplicates using pooled samples from two independent experiments (each performed with biological duplicates) by use of a CFX96 cycler (BioRad) and the SensiMix SYBR Kit (Bioline, London, UK). The primers used for mRNA expression analyses are listed in Supplementary Table 1. To ensure the specificity of the amplification product, melting curves were recorded at the end of the run. mRNA expression levels were normalized to β-Actin and Gapdh. Relative mRNA expression in mESC or corresponding untreated controls was set to 1.0. Only changes in gene expression of ≤ 0.5- and ≥ 2-fold were considered as biologically relevant.
To monitor prototypical functions of endothelial cells, the uptake of fluorescent 1,1-dioctadecyl-3,3,3,3-tetra-methylindocarbocyanine-labeled acetylated LDL (Dil-acLDL) was examined. Briefly, cells were incubated with Dil-acLDL (10 µg/ml, 4 h, 37 °C). After fixation (3.7% cold formaldehyde/PBS (15 min, RT) nuclei were counterstained with DAPI. The uptake of DiI-acLDL was analyzed by fluorescence microscopy (Olympus BX43, 20x objective). Additionally, the response of differentiated EC to inflammatory cytokines was measured. After treatment with a pro-inflammatory cytokine mixture (TNFα/IL-1β, 10 ng/mL) for 1 h, mRNA expression of activated EC markers E-selectin, Icam-1, Vcam-1, Ccl2, eNos, iNos was analyzed (RT-qPCR).

[2] = system: EC d6 (endothelial-like cells); assay: RT-qPCR mRNA expression; settings: for Cdkn1a mRNA / Cdkn2a mRNA / Glb1 mRNA / Il6 mRNA / Il8 mRNA / Tp53 mRNA: Fig 7C; for Atp7a mRNA / Atp7b mRNA / Ctr2 mRNA / Mdr1 mRNA / Mrp1 mRNA / Oct2 mRNA: Fig 2D
Procedure: as §2

[3] = EC d4 + 0.005 µM 48 h, analysed in EC d6
[4] = EC d4 + 0.005 µM 48 h, then + I/T (IL-1β/TNFα 10 ng/ml, 1 h)
[5] = EC d4 + 0.05 µM 48 h, analysed in EC d6
[6] = EC d4 + 0.05 µM 48 h, then + I/T (IL-1β/TNFα 10 ng/ml, 1 h)
[7] = EC d6 + 0.05 µM 24 h + 24 h post incubation
[8] = EC d6 + 0.1 µM 24 h + 24 h post incubation

## COc1cccc2c1C(=O)c1c(O)c3c(c(O)c1C2=O)C[C@@](O)(C(=O)CO)C[C@@H]3O[C@H]1C[C@H](N)[C@H](O)[C@H](C)O1 [Dox, doxorubicin]
mESC
  nuclear γH2AX foci: significant increase
EC d4
  DSB numbers (γH2AX / 53BP1 foci): clear increase
[1]; EC d4 + 0.005 µM 48 h
  Flk1 mRNA: 18.23 Fold of mESC
  Nanog mRNA: 0.03 Fold of mESC
  Oct4 mRNA: 0.02 Fold of mESC
  Pecam1 mRNA: 0.78 Fold of mESC
  Tie1 mRNA: 90.91 Fold of mESC
  VE-cad mRNA: 653.73 Fold of mESC
  Gpx4 mRNA: 1.07 Fold of untreated control
  Slc7a11 mRNA: 1.71 Fold of untreated control
[1]; [3]
  Ccl2 mRNA: 2.40 Fold of untreated control
  Icam-1 mRNA: 3.06 Fold of untreated control
  Vcam-1 mRNA: 0.44 Fold of untreated control
  iNos mRNA: 4.75 Fold of untreated control
[1]; [4]
  Ccl2 mRNA: 242.22 Fold of untreated control
  Icam-1 mRNA: 14.94 Fold of untreated control
  Vcam-1 mRNA: 1.13 Fold of untreated control
  eNos mRNA: 157.09 Fold of untreated control
  iNos mRNA: 4.95 Fold of untreated control
[1]; EC d4 + 0.005 µM 48 h, Fig 2D
  Atp7a mRNA: 1.11 Fold of control
  Ctr2 mRNA: 1.25 Fold of control
  Mdr1 mRNA: 1.46 Fold of control
  Mrp1 mRNA: 1.32 Fold of control
  Oct2 mRNA: 0.33 Fold of control
[1]; EC d4 + 0.005 µM 48 h, Fig 7B
  Cdkn1a mRNA: 1.42 Fold of untreated control
  Cdkn2a mRNA: 1.12 Fold of untreated control
  Glb1 mRNA: 0.97 Fold of untreated control
  Il6 mRNA: 0.95 Fold of untreated control
  Il8 mRNA: 1.26 Fold of untreated control
  Tp53 mRNA: 0.98 Fold of untreated control
[1]; EC d4 + 0.05 µM 48 h
  Flk1 mRNA: 26.95 Fold of mESC
  Nanog mRNA: 0.02 Fold of mESC
  Oct4 mRNA: 0.02 Fold of mESC
  Pecam1 mRNA: 1.42 Fold of mESC
  Tie1 mRNA: 146.88 Fold of mESC
  VE-cad mRNA: 1297.80 Fold of mESC
  Gpx4 mRNA: 1.35 Fold of untreated control
  Slc7a11 mRNA: 3.43 Fold of untreated control
[1]; [5]
  Ccl2 mRNA: 23.54 Fold of untreated control
  Icam-1 mRNA: 53.37 Fold of untreated control
  Vcam-1 mRNA: 0.085 Fold of untreated control
  eNos mRNA: 239.30 Fold of untreated control
  iNos mRNA: 3.20 Fold of untreated control
[1]; [6]
  Ccl2 mRNA: 2314.32 Fold of untreated control
  Icam-1 mRNA: 154.74 Fold of untreated control
  Vcam-1 mRNA: 0.39 Fold of untreated control
  eNos mRNA: 234.32 Fold of untreated control
  iNos mRNA: 3.41 Fold of untreated control
[1]; EC d4 + 0.05 µM 48 h, Fig 2D
  Atp7a mRNA: 1.81 Fold of control
  Atp7b mRNA: 0.54 Fold of control
  Ctr2 mRNA: 1.38 Fold of control
  Mdr1 mRNA: 105.13 Fold of control
  Mrp1 mRNA: 1.43 Fold of control
  Oct2 mRNA: 0.53 Fold of control
[1]; EC d4 + 0.05 µM 48 h, Fig 5C
  Brca1 mRNA: 0.25 Fold of mESC
  Chk1 mRNA: 0.34 Fold of mESC
  Rad51 mRNA: 0.27 Fold of mESC
[1]; EC d4 + 0.05 µM 48 h, Fig 6D
  Pgc1a mRNA: 24.33 Fold of untreated control
[1]; EC d4 + 0.05 µM 48 h, Fig 7B
  Cdkn1a mRNA: 4.89 Fold of untreated control
  Cdkn2a mRNA: 3.09 Fold of untreated control
  Glb1 mRNA: 1.54 Fold of untreated control
  Il6 mRNA: 1.91 Fold of untreated control
  Il8 mRNA: 25.17 Fold of untreated control
[1]; EC d4 + 0.05 µM 48 h, Fig 8C
  Cldn5 mRNA: 1.35 Fold of EC d4 or d6
  Ocln mRNA: 1.78 Fold of EC d4 or d6
  Tjp1 mRNA: 2.10 Fold of EC d4 or d6
[1]; EC d4 + 0.05 µM 48 h, Fig 8F
  Ldlr mRNA: 0.45 Fold of untreated control
[2]; [7]
  Cdkn1a mRNA: 4.38 Fold of untreated control
  Cdkn2a mRNA: 1.77 Fold of untreated control
  Glb1 mRNA: 1.49 Fold of untreated control
  Il6 mRNA: 1.91 Fold of untreated control
  Il8 mRNA: 1.31 Fold of untreated control
  Tp53 mRNA: 1.15 Fold of untreated control
[2]; EC d6 + 0.05 µM 24 h
  Atp7a mRNA: 1.47 Fold of control
  Atp7b mRNA: 0.99 Fold of control
  Ctr2 mRNA: 1.13 Fold of control
  Mdr1 mRNA: 4.89 Fold of control
  Mrp1 mRNA: 1.23 Fold of control
  Oct2 mRNA: 0.25 Fold of control
[2]; EC d6 + 0.05 µM 24 h, Fig 6C
  Gpx1 mRNA: 1.10 Fold of untreated control
  Gpx4 mRNA: 1.68 Fold of untreated control
  Gstm1 mRNA: 2.52 Fold of untreated control
  Hmox1 mRNA: 2.63 Fold of untreated control
  Pgc1a mRNA: 10.96 Fold of untreated control
  Sod1 mRNA: 2.60 Fold of untreated control
  Sod2 mRNA: 1.17 Fold of untreated control
[2]; EC d6 + 0.05 µM 24 h, Fig 6F
  Slc7a11 mRNA: 0.82 Fold of untreated control
[2]; [8]
  Cdkn1a mRNA: 5.67 Fold of untreated control
  Cdkn2a mRNA: 2.66 Fold of untreated control
  Glb1 mRNA: 1.97 Fold of untreated control
  Il6 mRNA: 3.23 Fold of untreated control
  Il8 mRNA: 1.15 Fold of untreated control
  Tp53 mRNA: 1.09 Fold of untreated control
[2]; EC d6 + 0.1 µM 24 h
  Atp7a mRNA: 1.77 Fold of control
  Atp7b mRNA: 1.11 Fold of control
  Ctr2 mRNA: 1.27 Fold of control
  Mdr1 mRNA: 11.55 Fold of control
  Mrp1 mRNA: 1.40 Fold of control
  Oct2 mRNA: 1.39 Fold of control
[2]; EC d6 + 0.1 µM 24 h, Fig 5C
  Brca1 mRNA: 0.45 Fold of mESC
  Chk1 mRNA: 0.43 Fold of mESC
  Rad51 mRNA: 0.48 Fold of mESC
[2]; EC d6 + 0.1 µM 24 h, Fig 6D
  Pgc1a mRNA: 21.56 Fold of untreated control
[2]; EC d6 + 0.1 µM 24 h, Fig 6F
  Gpx4 mRNA: 0.99 Fold of untreated control
  Slc7a11 mRNA: 1.09 Fold of untreated control
[2]; EC d6 + 0.1 µM 24 h, Fig 8C
  Cldn5 mRNA: 2.50 Fold of EC d4 or d6
  Ocln mRNA: 1.79 Fold of EC d4 or d6
  Tjp1 mRNA: 1.21 Fold of EC d4 or d6

Source: paper PMC13308190, “Endothelial progenitor cell susceptibility to DNA damaging and DDR-modulating compounds determines endothelial differentiation accuracy” (Stem Cell Research & Therapy, 2026)
